System: adult patients with OSA and ES
Experiment: Safety and tolerability (TEAEs, vital signs), 12-week parallel study in OSA
Format: in vivo, human
Settings: for Anxiety, incidence / Any TEAE, incidence / Decreased appetite, incidence / Diarrhea, incidence / Discontinuations due to TEAEs, incidence / Dry mouth, incidence / Feeling jittery, incidence / Headache, incidence / Insomnia, incidence / Irritability, incidence / Nasopharyngitis, incidence / Nausea, incidence / Pruritus, incidence / Serious TEAEs, incidence / Sinusitis, incidence: safety population
Method: The study was a 12-week, double-blind, placebo-controlled, parallel design study as described in greater detail in Example 1 (Schweitzer et al., Sleep 40(Abstract Supplement):A237. Abstract 0641 (2017)). Patients were randomized (1:1:2:2:2) to APC 37.5, 75, 150, 300 mg, or placebo for 12 weeks, and were stratified by adherence or non-adherence with primary OSA therapy (adherent definition was use for ≥4 hours per night on >70% of nights). Two patient-reported measures were included as secondary efficacy outcomes to evaluate the effects of APC on functional status and work productivity and activity impairment at baseline and weeks 1, 4, 8, and 12. The Functional Outcomes of Sleep questionnaire short version (FOSQ-10) (Chasens et al., Sleep 32(7):915 (2009)) evaluated the effects of ES on functioning. The Work Productivity and Activity Impairment questionnaire for Specific Health Problems (WPAI:SHP) (Reilly et al., Pharmacoeconomics 4(5):353 (1993); Reilly, Work Productivity and Activity Impairment Questionnaire: Specific Health Problem V2.0 (WPAI: SHP). www.reillyassociates.net/WPAI_SHP) evaluated work productivity impairment among employed patients and overall activity impairment outside of work among all patients for the past 7 days. Four outcomes are available from the WPAI:SHP: Absenteeism (percent work time missed due to health); Presenteeism (percent impairment while working due to health); Percent overall work impairment (calculated from absenteeism and presenteeism); and Percent activity impairment due to health. The FOSQ-10 was evaluated as change over time compared with placebo (least squares (LS) mean); the 4 WPAI outcomes were evaluated at week 12 compared to placebo. Efficacy analyses were based on the modified intent-to-treat population (mITT) and there was no multiplicity adjustment for the FOSQ-10 or WPAI:SHP. Safety and tolerability were assessed based on treatment-emergent adverse events (TEAEs), vital signs, electrocardiogram test, physical exams, Columbia-Suicide Severity Rating Scale, and laboratory tests in the safety population.
Efficacy analyses were based on the modified intent-to-treat (mITT) population; there was no multiplicity adjustment for the SF-36 v2 or EQ-5D-5L. SF-36 v2 scores were scaled from 0 to 100 (higher scores on all scales represent better health), transformed to norm-based scores using US general-population data from SF-36 Manuals (Ware Jr et al., User's Manual for the SF-36v2™ Health Survey (2nd ed.). QualityMetric Incorporated (Lincoln, RI); 2007), and were analyzed using a mixed-effect model with repeated measures (MMRM); and baseline value of the efficacy endpoint was used to determine differences in changes from baseline. EQ-5D-5L VAS and index-score data were analyzed using an MMRM model. Safety and tolerability were assessed based on treatment-emergent adverse events (TEAEs), vital signs, electrocardiogram test, physical exams, and laboratory tests.

NC(=O)OC[C@H](N)Cc1ccccc1 [JZP-110, (R)-2-amino-3-phenylpropyl carbamate]
Serious TEAEs reported (events) (37.5 mg): bile duct obstruction (n=1) and streptococcal endocarditis (n=1)
Anxiety, incidence (37.5 mg (n = 58)): 1 (1.7) n (%)
Any TEAE, incidence (37.5 mg (n = 58)): 37 (63.8) n (%)
Decreased appetite, incidence (37.5 mg (n = 58)): 1 (1.7) n (%)
Diarrhea, incidence (37.5 mg (n = 58)): 1 (1.7) n (%)
Discontinuations due to TEAEs, incidence (37.5 mg (n = 58)): 3 (5.2) n (%)
Dry mouth, incidence (37.5 mg (n = 58)): 1 (1.7) n (%)
Feeling jittery, incidence (37.5 mg (n = 58)): 3 (5.2) n (%)
Headache, incidence (37.5 mg (n = 58)): 4 (6.9) n (%)
Insomnia, incidence (37.5 mg (n = 58)): 1 (1.7) n (%)
Irritability, incidence (37.5 mg (n = 58)): 3 (5.2) n (%)
Nasopharyngitis, incidence (37.5 mg (n = 58)): 2 (3.4) n (%)
Nausea, incidence (37.5 mg (n = 58)): 3 (5.2) n (%)
Pruritus, incidence (37.5 mg (n = 58)): 3 (5.2) n (%)
Serious TEAEs, incidence (37.5 mg (n = 58)): 2 (3.4) n (%)
Sinusitis, incidence (37.5 mg (n = 58)): 1 (1.7) n (%)
Serious TEAEs reported (events) (37.5 mg, listed as APC): bile duct obstruction (n=1), and streptococcal endocarditis (n=1)
Anxiety, incidence (75 mg (n = 62)): 2 (3.2) n (%)
Any TEAE, incidence (75 mg (n = 62)): 30 (48.4) n (%)
Decreased appetite, incidence (75 mg (n = 62)): 3 (4.8) n (%)
Diarrhea, incidence (75 mg (n = 62)): 3 (4.8) n (%)
Discontinuations due to TEAEs, incidence (75 mg (n = 62)): 2 (3.2) n (%)
Dry mouth, incidence (75 mg (n = 62)): 1 (1.6) n (%)
Feeling jittery, incidence (75 mg (n = 62)): 3 (4.8) n (%)
Headache, incidence (75 mg (n = 62)): 5 (8.1) n (%)
Insomnia, incidence (75 mg (n = 62)): 0 n (%)
Irritability, incidence (75 mg (n = 62)): 0 n (%)
Nasopharyngitis, incidence (75 mg (n = 62)): 1 (1.6) n (%)
Nausea, incidence (75 mg (n = 62)): 3 (4.8) n (%)
Pruritus, incidence (75 mg (n = 62)): 0 n (%)
Serious TEAEs, incidence (75 mg (n = 62)): 0 n (%)
Sinusitis, incidence (75 mg (n = 62)): 4 (6.5) n (%)
Serious TEAEs reported (events) (150 mg): hyperglycemia (n=1)
Anxiety, incidence (150 mg (n = 117)): 6 (5.1) n (%)
Any TEAE, incidence (150 mg (n = 117)): 83 (70.9) n (%)
Decreased appetite, incidence (150 mg (n = 117)): 9 (7.7) n (%)
Diarrhea, incidence (150 mg (n = 117)): 5 (4.3) n (%)
Discontinuations due to TEAEs, incidence (150 mg (n = 117)): 5 (4.3) n (%)
Dry mouth, incidence (150 mg (n = 117)): 5 (4.3) n (%)
Feeling jittery, incidence (150 mg (n = 117)): 1 (0.9) n (%)
Headache, incidence (150 mg (n = 117)): 10 (8.5) n (%)
Insomnia, incidence (150 mg (n = 117)): 3 (2.6) n (%)
Irritability, incidence (150 mg (n = 117)): 4 (3.4) n (%)
Nasopharyngitis, incidence (150 mg (n = 117)): 7 (6.0) n (%)
Nausea, incidence (150 mg (n = 117)): 10 (8.5) n (%)
Pruritus, incidence (150 mg (n = 117)): 1 (0.9) n (%)
Serious TEAEs, incidence (150 mg (n = 117)): 1 (0.9) n (%)
Sinusitis, incidence (150 mg (n = 117)): 0 n (%)
Anxiety, incidence (300 mg (n = 118)): 16 (13.6) n (%)
Any TEAE, incidence (300 mg (n = 118)): 91 (77.1) n (%)
Decreased appetite, incidence (300 mg (n = 118)): 14 (11.9) n (%)
Diarrhea, incidence (300 mg (n = 118)): 8 (6.8) n (%)
Discontinuations due to TEAEs, incidence (300 mg (n = 118)): 15 (12.7) n (%)
Dry mouth, incidence (300 mg (n = 118)): 9 (7.6) n (%)
Feeling jittery, incidence (300 mg (n = 118)): 7 (5.9) n (%)
Headache, incidence (300 mg (n = 118)): 17 (14.4) n (%)
Insomnia, incidence (300 mg (n = 118)): 11 (9.3) n (%)
Irritability, incidence (300 mg (n = 118)): 1 (0.8) n (%)
Nasopharyngitis, incidence (300 mg (n = 118)): 8 (6.8) n (%)
Nausea, incidence (300 mg (n = 118)): 12 (10.2) n (%)
Pruritus, incidence (300 mg (n = 118)): 0 n (%)
Serious TEAEs, incidence (300 mg (n = 118)): 0 n (%)
Sinusitis, incidence (300 mg (n = 118)): 3 (2.5) n (%)
Mean increase from baseline in diastolic blood pressure (12-week OSA study): 1-3 mmHg
Mean increase from baseline in pulse rate (12-week OSA study): 2-5 beats/minute
Mean increase from baseline in systolic blood pressure (12-week OSA study): 1-4 mmHg
Anxiety, incidence (All doses (n = 355)): 25 (7.0) n (%)
Any TEAE, incidence (All doses (n = 355)): 241 (67.9) n (%)
Decreased appetite, incidence (All doses (n = 355)): 27 (7.6) n (%)
Diarrhea, incidence (All doses (n = 355)): 17 (4.8) n (%)
Discontinuations due to TEAEs, incidence (All doses (n = 355)): 25 (7.0) n (%)
Dry mouth, incidence (All doses (n = 355)): 16 (4.5) n (%)
Feeling jittery, incidence (All doses (n = 355)): 14 (3.9) n (%)
Headache, incidence (All doses (n = 355)): 36 (10.1) n (%)
Insomnia, incidence (All doses (n = 355)): 15 (4.2) n (%)
Irritability, incidence (All doses (n = 355)): 8 (2.3) n (%)
Nasopharyngitis, incidence (All doses (n = 355)): 18 (5.1) n (%)
Nausea, incidence (All doses (n = 355)): 28 (7.9) n (%)
Pruritus, incidence (All doses (n = 355)): 4 (1.1) n (%)
Serious TEAEs, incidence (All doses (n = 355)): 3 (0.8) n (%)
Sinusitis, incidence (All doses (n = 355)): 8 (2.3) n (%)
